Laboratory results: ChEMBL document CHEMBL4311993, “Structure-activity relationship study of NPP1 inhibitors based on uracil-N1-(methoxy)ethyl-β-phosphate scaffold” (Eur J Med Chem, 2019)
Calls of active or inactive are those of the source. The rule behind the calls is not given here.

Key:
[1] = target: T1, Ectonucleotide pyrophosphatase/phosphodiesterase family member 1 (Homo sapiens) (UniProt P22413); assay: Inhibition of human NPP1 expressed in COS7 cell membranes at 100 uM using pNP-TMP as substrate preincubated for 3 mins followed by substrate addition and measured after 15 mins relative to control
T1 sequence (whole entry): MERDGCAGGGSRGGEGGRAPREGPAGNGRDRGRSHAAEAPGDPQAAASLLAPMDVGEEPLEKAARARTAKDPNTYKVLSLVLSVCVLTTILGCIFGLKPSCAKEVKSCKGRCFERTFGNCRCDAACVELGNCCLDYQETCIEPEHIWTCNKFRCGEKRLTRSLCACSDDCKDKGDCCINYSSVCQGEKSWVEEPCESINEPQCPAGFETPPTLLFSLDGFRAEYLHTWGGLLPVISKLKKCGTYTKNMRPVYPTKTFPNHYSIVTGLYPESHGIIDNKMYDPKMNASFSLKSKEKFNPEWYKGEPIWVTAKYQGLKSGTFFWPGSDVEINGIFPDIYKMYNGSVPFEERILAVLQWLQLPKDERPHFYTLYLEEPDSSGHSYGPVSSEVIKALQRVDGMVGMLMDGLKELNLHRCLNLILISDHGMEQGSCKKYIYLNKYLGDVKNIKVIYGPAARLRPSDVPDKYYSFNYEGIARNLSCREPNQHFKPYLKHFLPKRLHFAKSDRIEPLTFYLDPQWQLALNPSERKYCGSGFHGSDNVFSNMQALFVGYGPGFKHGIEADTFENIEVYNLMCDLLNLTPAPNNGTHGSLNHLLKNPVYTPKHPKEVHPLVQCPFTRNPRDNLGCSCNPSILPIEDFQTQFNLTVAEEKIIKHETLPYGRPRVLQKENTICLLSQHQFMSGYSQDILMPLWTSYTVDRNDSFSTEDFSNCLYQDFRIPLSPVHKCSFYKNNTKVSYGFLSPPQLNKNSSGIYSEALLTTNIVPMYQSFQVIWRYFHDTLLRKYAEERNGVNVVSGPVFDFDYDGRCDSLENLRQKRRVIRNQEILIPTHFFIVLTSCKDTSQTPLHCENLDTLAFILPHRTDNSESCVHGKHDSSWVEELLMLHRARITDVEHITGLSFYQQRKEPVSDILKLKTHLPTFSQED

[2] = target: P2Y purinoceptor 2 (Homo sapiens) (UniProt P41231); assay: Partial agonist activity at human P2Y2 receptor expressed in AD293 cells assessed as inositol-1-phosphate accumulation at 100 uM; assay type: functional, cell-based
[3] = target: T2, Ectonucleotide pyrophosphatase/phosphodiesterase family member 3 (Homo sapiens) (UniProt O14638); assay: Inhibition of human NPP3 expressed in COS7 cell membranes at 100 uM using pNP-TMP as substrate preincubated for 3 mins followed by substrate addition and measured after 15 mins
T2 sequence (whole entry): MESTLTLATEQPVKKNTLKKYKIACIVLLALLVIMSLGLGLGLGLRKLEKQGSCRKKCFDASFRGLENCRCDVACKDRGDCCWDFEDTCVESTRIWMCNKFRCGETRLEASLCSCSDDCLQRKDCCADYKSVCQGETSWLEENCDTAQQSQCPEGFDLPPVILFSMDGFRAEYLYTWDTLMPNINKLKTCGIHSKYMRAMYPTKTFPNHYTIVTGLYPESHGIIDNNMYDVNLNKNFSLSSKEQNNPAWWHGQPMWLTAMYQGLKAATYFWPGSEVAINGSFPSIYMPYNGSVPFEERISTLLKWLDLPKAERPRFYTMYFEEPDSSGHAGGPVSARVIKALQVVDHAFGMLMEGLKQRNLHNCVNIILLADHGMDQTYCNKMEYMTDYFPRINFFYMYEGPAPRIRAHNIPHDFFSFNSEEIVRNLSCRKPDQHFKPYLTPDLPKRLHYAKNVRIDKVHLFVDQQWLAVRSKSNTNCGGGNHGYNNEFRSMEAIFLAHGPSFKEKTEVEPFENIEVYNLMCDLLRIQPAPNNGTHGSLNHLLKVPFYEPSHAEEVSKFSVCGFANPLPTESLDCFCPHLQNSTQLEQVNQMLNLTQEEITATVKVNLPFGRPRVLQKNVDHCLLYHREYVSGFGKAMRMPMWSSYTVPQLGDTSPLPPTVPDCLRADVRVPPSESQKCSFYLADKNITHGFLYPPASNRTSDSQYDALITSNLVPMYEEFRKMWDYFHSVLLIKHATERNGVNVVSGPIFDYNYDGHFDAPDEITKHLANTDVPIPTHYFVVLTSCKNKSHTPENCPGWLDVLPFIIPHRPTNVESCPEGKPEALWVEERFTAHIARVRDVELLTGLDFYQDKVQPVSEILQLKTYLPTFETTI

[4] = target: T1, Ectonucleotide pyrophosphatase/phosphodiesterase family member 1 (Homo sapiens); assay: Inhibition of human NPP1 expressed in COS7 cell membranes at 100 uM using pNP-TMP as substrate preincubated for 3 mins followed by substrate addition and measured after 15 mins
[5] = target: P2Y purinoceptor 2 (Homo sapiens) (UniProt P41231); assay: Antagonist activity at human P2Y2 receptor expressed in AD293 cells assessed as inhibition of UTP-induced inositol-1-phosphate accumulation at 100 uM; assay type: functional, cell-based
[6] = target: P2Y purinoceptor 2 (Homo sapiens) (UniProt P41231); assay: Agonist activity at human P2Y2 receptor expressed in AD293 cells assessed as inositol-1-phosphate accumulation at 100 uM; assay type: functional, cell-based
Homo sapiens = species on record: Homo sapiens; assay: Inhibition of alkaline phosphatase in human primary chondrocyte at 100 uM using p-nitrophenyl phosphate as substrate after 30 mins by […] relative to control
[7] = Cytotoxicity against human primary chondrocytes at 100 uM after 24 hrs by XTT assay
[8] = target: T3, Ectonucleotide pyrophosphatase/phosphodiesterase family member 1 (Homo sapiens, UniProt P22413); assay: Inhibition of human NPP1 expressed in COS7 cell membranes using pNP-TMP as substrate preincubated for 3 mins followed by substrate addition and measured after 15 mins by Dixon plot analysis
T3 sequence (P22413 whole entry): T1 sequence (whole entry)

[9] = target: T2, Ectonucleotide pyrophosphatase/phosphodiesterase family member 3 (Homo sapiens); assay: Inhibition of human NPP3 expressed in COS7 cell membranes at 100 uM using pNP-TMP as substrate preincubated for 3 mins followed by substrate addition and measured after 15 mins relative to control
[10] = target: T1, Ectonucleotide pyrophosphatase/phosphodiesterase family member 1 (Homo sapiens); assay: Inhibition of NPP-1 in human articular chondrocytes at 100 uM using p-Nph-5'-TMP as substrate after 3 hrs by […] relative to control; assay type: cell-based

P2Y purinoceptor 2 (Homo sapiens), sequence (P41231 whole entry): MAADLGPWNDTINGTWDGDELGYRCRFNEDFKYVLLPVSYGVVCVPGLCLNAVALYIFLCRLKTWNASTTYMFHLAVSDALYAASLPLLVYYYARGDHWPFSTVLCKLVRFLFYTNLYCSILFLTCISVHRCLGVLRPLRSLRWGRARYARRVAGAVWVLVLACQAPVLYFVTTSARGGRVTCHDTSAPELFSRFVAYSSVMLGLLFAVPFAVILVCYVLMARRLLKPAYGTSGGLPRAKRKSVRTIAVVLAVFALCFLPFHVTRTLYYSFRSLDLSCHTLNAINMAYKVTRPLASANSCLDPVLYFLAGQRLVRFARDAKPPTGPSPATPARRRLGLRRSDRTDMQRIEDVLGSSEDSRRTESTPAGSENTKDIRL

Structure (SMILES)	inhibition [1] [%]	Activity [2]	inhibition [3]	inhibition [4]	inhibition [5]	Activity [6]	inhibition (Homo sapiens) [%]	Activity [7]	Ki [8] [nM]	inhibition [9] [%]	inhibition [10] [%]
O=c1ccn(COCCOP(=O)(O)CP(=O)(O)O)c(=O)[nH]1	54	Active	Active	–	–	–	–	–	–	–	–
O=c1ccn(COCCO[PH](=O)O)c(=O)[nH]1	–	–	inactive	inactive	inactive	inactive	–	–	–	–	–
O=c1ccn(COCCOP(=O)(O)O)c(=O)[nH]1	–	–	inactive	inactive	inactive	inactive	–	–	–	–	–
O=c1ccn(COCCOP(=S)(S)OP(=O)(O)CP(=O)(O)O)c(=O)[nH]1 (stereo not given)	96	–	–	–	inactive	inactive	< 10	Non-Toxic	940	24	–
O=c1ccn(COCCOP(=O)(O)C(Cl)(Cl)P(=O)(O)O)c(=O)[nH]1	51	–	Active	–	inactive	inactive	–	–	–	–	–
O=c1ccn(COCCOP(=S)(S)OP(=O)(O)C(Cl)(Cl)P(=O)(O)O)c(=O)[nH]1 (stereo not given)	96	–	–	–	inactive	inactive	< 10	Non-Toxic	730	21	96
